Laboratory results: patent US20250243488A1, “METHODS OF MODULATING PROGRANULIN EXPRESSION USING ANTISENSE OLIGONUCLEOTIDES TARGETING REGULATORY RNAS” (Camp4 Therapeutics Corporation, priority 2022, published 2025)
Oligonucleotides are written 5' to 3', each unit as a sugar letter and its base; * is a phosphorothioate linkage, no mark a phosphodiester; rarer units and linkages stand in square brackets, end groups in braces. Plain capitals give the bases only. e = 2'-O-(2-methoxyethyl) (MOE); l = locked nucleic acid (LNA); [5mC] = 5-methylcytosine

Tested on: GRN-FTD patient-derived neurons
Assay: Staurosporine rescue assay (LDH-Glo cytotoxicity)
Type: cell-based, human
Conditions: 10 uM ASO, one week, then 10 nM or 100 nM staurosporine, 24 hour (FIG. 9B)
Protocol: CO-4113 rescued staurosporine-induced toxicity in GRN-FTD patient-derived neurons. GRN-FTD patient-derived neurons were treated with 10 uM of CO-4113 or sNTC (CO-1589) ASOs. As positive controls, cells were treated with either recombinant human PGRN protein (2.5 nM) or brain derived neurotrophic factor (BDNF) protein (1 nM). One week after treatment, neurons were treated with DMSO, 10 nM or 100 nM staurosporine. Culture media was collected 24 hour later, and cell toxicity was measured using LDH-Glo™ Cytotoxicity Assay (Promega Corp.) as instructed by manufacturer. Triton™ X-100-treated cells were used as positive control. All values were normalized to positive control cells to calculate percent cytotoxicity.

Substance: CO-4113: GRN paRNA-targeting ASO; modified version of CO-3423 (antisense eG*eG*eA*e[5mC]*eT*lT*eG*eG*lG*eA*eG*lT*eG*eG*lT*eG*eA*e[5mC]*eT*eG)
- staurosporine-induced cytotoxicity (percent cytotoxicity, LDH-Glo): reduced the cytotoxicity
